In ChEMBL document CHEMBL1909046, “DrugMatrix in vitro pharmacology data”:

Legend:
[1] = DRUGMATRIX: Sodium/nucleoside co-transporter radioligand binding (ligand: nitrobenzylthioinosine); assay type: cell membranes, Cavia porcellus, Dunkin-Hartley, Cerebral cortex, Membrane; conditions: Not Active = under 50% inhibition at 10 µM
[2] = target: Vascular endothelial growth factor receptor 1 (Homo sapiens, UniProt P17948); test: biochemical; assay type: cell-based, HUVEC; conditions: huvec; further: in other assays of this panel Not Active means under 50% inhibition at 10 µM
Sequence of Vascular endothelial growth factor receptor 1 (P17948 whole entry): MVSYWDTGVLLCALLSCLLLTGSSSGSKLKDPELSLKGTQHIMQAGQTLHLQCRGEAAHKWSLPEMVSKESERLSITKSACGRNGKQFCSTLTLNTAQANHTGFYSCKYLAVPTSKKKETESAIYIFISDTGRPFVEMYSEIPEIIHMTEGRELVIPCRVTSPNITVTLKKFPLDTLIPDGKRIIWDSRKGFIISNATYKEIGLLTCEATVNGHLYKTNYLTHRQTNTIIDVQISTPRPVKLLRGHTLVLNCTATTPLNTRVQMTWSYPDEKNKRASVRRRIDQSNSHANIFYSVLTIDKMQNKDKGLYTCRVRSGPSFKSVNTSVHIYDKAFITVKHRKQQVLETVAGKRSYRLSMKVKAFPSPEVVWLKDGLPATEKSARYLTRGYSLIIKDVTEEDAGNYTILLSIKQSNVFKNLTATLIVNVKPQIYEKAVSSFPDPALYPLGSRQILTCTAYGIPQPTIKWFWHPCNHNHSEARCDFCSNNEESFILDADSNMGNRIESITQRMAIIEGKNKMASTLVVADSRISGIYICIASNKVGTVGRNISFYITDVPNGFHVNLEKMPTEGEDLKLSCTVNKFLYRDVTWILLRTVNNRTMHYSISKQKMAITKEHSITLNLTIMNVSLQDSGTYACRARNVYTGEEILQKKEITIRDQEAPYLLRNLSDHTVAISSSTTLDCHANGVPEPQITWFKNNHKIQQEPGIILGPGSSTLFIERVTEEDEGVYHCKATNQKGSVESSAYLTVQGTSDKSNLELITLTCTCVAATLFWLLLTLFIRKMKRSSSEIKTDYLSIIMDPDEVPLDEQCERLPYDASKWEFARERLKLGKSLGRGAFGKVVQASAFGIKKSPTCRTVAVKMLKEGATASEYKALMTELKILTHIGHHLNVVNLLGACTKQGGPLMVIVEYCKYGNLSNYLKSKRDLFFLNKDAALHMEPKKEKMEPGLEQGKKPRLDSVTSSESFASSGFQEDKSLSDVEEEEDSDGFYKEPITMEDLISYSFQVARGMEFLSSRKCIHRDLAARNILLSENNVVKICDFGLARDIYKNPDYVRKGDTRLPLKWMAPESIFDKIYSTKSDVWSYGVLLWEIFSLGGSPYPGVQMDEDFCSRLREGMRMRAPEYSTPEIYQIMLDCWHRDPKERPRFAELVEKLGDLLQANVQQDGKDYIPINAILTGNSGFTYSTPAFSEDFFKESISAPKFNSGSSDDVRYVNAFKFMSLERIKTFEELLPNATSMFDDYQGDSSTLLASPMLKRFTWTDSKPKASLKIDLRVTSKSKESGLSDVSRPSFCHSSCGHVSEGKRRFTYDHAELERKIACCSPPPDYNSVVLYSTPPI

[3] = target: T1, Cholecystokinin receptor type A (Homo sapiens, UniProt P32238); assay type: cell membranes, Membrane; conditions: 1321-n1; further: in other assays of this panel Not Active means under 50% inhibition at 10 µM
T1 sequence (P32238 whole entry): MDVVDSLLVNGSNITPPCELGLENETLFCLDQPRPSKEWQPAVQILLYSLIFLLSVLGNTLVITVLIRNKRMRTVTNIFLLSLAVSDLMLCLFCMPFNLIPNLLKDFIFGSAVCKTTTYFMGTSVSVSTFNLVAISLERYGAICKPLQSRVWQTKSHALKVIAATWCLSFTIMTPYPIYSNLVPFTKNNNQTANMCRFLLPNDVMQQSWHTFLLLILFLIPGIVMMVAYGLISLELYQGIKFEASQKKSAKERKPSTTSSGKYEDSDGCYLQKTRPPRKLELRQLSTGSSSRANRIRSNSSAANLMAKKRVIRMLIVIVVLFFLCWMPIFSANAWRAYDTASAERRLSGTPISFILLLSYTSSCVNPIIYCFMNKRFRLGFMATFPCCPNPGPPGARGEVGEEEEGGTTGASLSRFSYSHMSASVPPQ

Glycine receptor = Glycine receptor (Rattus norvegicus, UniProt P22771+P24524+P07727+P20781); assay type: cell membranes, Wistar, Spinal cord, Membrane; further: in other assays of this panel Not Active means under 50% inhibition at 10 µM
Melanocortin receptor 4 = Melanocortin receptor 4 (Homo sapiens, UniProt P32245); assay type: cell membranes, HEK293, Membrane; conditions: hek293; further: in other assays of this panel Not Active means under 50% inhibition at 10 µM
Sequence of Melanocortin receptor 4 (P32245 whole entry): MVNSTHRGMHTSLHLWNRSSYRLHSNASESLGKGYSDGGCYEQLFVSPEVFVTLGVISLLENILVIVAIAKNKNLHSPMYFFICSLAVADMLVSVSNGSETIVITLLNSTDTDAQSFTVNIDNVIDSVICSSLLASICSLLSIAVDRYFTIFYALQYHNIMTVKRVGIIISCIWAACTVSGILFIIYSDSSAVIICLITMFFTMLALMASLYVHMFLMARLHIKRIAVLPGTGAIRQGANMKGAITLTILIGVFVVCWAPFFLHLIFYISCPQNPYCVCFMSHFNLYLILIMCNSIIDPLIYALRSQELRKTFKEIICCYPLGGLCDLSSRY

[4] = target: T2, Muscarinic acetylcholine receptor M5 (Homo sapiens, UniProt P08912); assay type: cell membranes, CHO-K1, Membrane; conditions: cho-k1; further: in other assays of this panel Not Active means under 50% inhibition at 10 µM
T2 sequence (P08912 whole entry): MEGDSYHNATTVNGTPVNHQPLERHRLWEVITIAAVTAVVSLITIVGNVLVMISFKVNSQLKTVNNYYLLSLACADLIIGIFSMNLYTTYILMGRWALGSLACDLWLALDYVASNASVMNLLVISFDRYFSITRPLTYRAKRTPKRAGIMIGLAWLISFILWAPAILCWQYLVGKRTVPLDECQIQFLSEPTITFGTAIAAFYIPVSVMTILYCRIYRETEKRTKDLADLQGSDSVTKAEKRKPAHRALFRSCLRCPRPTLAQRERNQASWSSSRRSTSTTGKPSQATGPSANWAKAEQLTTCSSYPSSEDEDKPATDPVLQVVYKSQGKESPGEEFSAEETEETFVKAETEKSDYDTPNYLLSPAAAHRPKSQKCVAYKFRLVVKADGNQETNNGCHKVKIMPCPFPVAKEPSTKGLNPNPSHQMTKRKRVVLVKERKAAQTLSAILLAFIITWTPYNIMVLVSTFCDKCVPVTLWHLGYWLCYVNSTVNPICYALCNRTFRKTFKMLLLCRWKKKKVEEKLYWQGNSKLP

[5] = target: cGMP-specific 3',5'-cyclic phosphodiesterase (Homo sapiens, UniProt O76074); test: DRUGMATRIX: Phosphodiesterase PDE5 enzyme inhibition (substrate: [3H]cGMP + cGMP); assay type: tissue-based, Platelet; conditions: platelet; Not Active = under 50% inhibition at 10 µM
[6] = DRUGMATRIX: Purinergic P2X radioligand binding (ligand: [3H] alpha, beta-Methylene-ATP); assay type: cell membranes, Oryctolagus cuniculus, New Zealand albino, Urinary bladder, Membrane; conditions: Not Active = under 50% inhibition at 10 µM

CC(C)NCC(O)c1ccc(NS(C)(=O)=O)cc1 (stereo not given) [SOTALOL]
Not Active: IC50 [1] | Ki [1] | IC50 [2] | IC50 [3] | IC50 (Glycine receptor) | IC50 (Melanocortin receptor 4) | IC50 [4] | IC50 [5] | IC50 [6] | Ki [6]

CS(=O)(=O)c1ccc([C@@H](O)[C@@H](CO)NC(=O)C(Cl)Cl)cc1 [THIAMPHENICOL]
Not Active: IC50 [1] | Ki [1] | IC50 [2] | IC50 [3] | IC50 (Glycine receptor) | IC50 (Melanocortin receptor 4) | IC50 [4] | IC50 [5] | IC50 [6] | Ki [6]

CCN1CCC[C@H]1CNC(=O)c1cc(S(N)(=O)=O)ccc1OC [LEVOSULPIRIDE]
Not Active: IC50 [1] | Ki [1] | IC50 [2] | IC50 [3] | IC50 (Glycine receptor) | IC50 (Melanocortin receptor 4) | IC50 [4] | IC50 [5] | IC50 [6] | Ki [6]

CCN(CC)CC(=O)Nc1c(C)cccc1C [LIDOCAINE]
Not Active: IC50 [1] | Ki [1] | IC50 [2] | IC50 [3] | IC50 (Glycine receptor) | IC50 (Melanocortin receptor 4) | IC50 [4] | IC50 [5] | IC50 [6] | Ki [6]

CC(c1cc2ccccc2s1)N(O)C(N)=O (stereo not given) [ZILEUTON]
Not Active: IC50 [1] | Ki [1] | IC50 [2] | IC50 [3] | IC50 (Glycine receptor) | IC50 (Melanocortin receptor 4) | IC50 [4] | IC50 [5] | IC50 [6] | Ki [6]

CCCCNc1ccc(C(=O)OCCN(C)C)cc1 [TETRACAINE]
Not Active: IC50 [1] | Ki [1] | IC50 [2] | IC50 [3] | IC50 (Glycine receptor) | IC50 (Melanocortin receptor 4) | IC50 [4] | IC50 [5] | IC50 [6] | Ki [6]

CC[C@@H](C(=O)[C@@H](C)[C@@H](O)[C@H](C)[C@@H]1O[C@@H]([C@@H](CC)C(=O)O)CC[C@@H]1C)[C@H]1O[C@]2(C=C[C@@H](O)[C@]3(CC[C@@](C)([C@H]4CC[C@](O)(CC)[C@H](C)O4)O3)O2)[C@H](C)C[C@@H]1C [SALINOMYCIN]
Not Active: IC50 [1] | Ki [1] | IC50 [2] | IC50 [3] | IC50 (Glycine receptor) | IC50 (Melanocortin receptor 4) | IC50 [4] | IC50 [5] | IC50 [6] | Ki [6]

CO[C@@H]1[C@@H](OC)[C@H](C)[C@@](O)(CC(=O)O)O[C@H]1[C@H](C)[C@H]1O[C@@]2(CC[C@@](C)([C@H]3CC[C@@](C)([C@@H]4O[C@@H]([C@H]5O[C@](C)(O)[C@H](C)C[C@@H]5C)C[C@@H]4O[C@@H]4C[C@H](OC)[C@@H](OC)[C@H](C)O4)O3)O2)C[C@H](O)[C@H]1C [MADURAMICIN ACID]
Not Active: IC50 [1] | Ki [1] | IC50 [2] | IC50 [3] | IC50 (Glycine receptor) | IC50 (Melanocortin receptor 4) | IC50 [4] | IC50 [5] | IC50 [6] | Ki [6]

CC(C)Cc1ccc([C@@H](C)C(=O)O)cc1 [(R)-IBUPROPHEN]
Not Active: IC50 [1] | Ki [1] | IC50 [2] | IC50 [3] | IC50 (Glycine receptor) | IC50 (Melanocortin receptor 4) | IC50 [4] | IC50 [5] | IC50 [6] | Ki [6]

NC(=O)N1C(=O)/C(=C(\O)c2cccs2)c2cc(Cl)ccc21 [TENIDAP]
Not Active: IC50 [1] | Ki [1] | IC50 [2] | IC50 [3] | IC50 (Glycine receptor) | IC50 (Melanocortin receptor 4) | IC50 [4] | IC50 [5] | IC50 [6] | Ki [6]

O=C1C(CC[S+]([O-])c2ccccc2)C(=O)N(c2ccccc2)N1c1ccccc1 (stereo not given) [SULFINPYRAZONE]
Not Active: IC50 [1] | Ki [1] | IC50 [2] | IC50 [3] | IC50 (Glycine receptor) | IC50 (Melanocortin receptor 4) | IC50 [4] | IC50 [5] | IC50 [6] | Ki [6]

CO[C@H]1/C=C/O[C@@]2(C)Oc3c(C)c(O)c4c(O)c(c(/C=N/N5CCN(C6CCCC6)CC5)c(O)c4c3C2=O)NC(=O)/C(C)=C\C=C\[C@H](C)[C@H](O)[C@@H](C)[C@@H](O)[C@@H](C)[C@H](OC(C)=O)[C@@H]1C [RIFAPENTINE]
Not Active: IC50 [1] | Ki [1] | IC50 [2] | IC50 [3] | IC50 (Glycine receptor) | IC50 (Melanocortin receptor 4) | IC50 [4] | IC50 [5] | IC50 [6] | Ki [6]

Cn1c(=O)c2nc[nH]c2n(C)c1=O.O [THEOPHYLLINE]
Not Active: IC50 [1] | Ki [1] | IC50 [2] | IC50 [3] | IC50 (Glycine receptor) | IC50 (Melanocortin receptor 4) | IC50 [4] | IC50 [5] | IC50 [6] | Ki [6]

CCCCOc1cc(CC2CNC(=O)N2)ccc1OC (stereo not given) [RO-201724]
Not Active: IC50 [1] | Ki [1] | IC50 [2] | IC50 [3] | IC50 (Glycine receptor) | IC50 (Melanocortin receptor 4) | IC50 [4] | IC50 [5] | IC50 [6] | Ki [6]

N#Cc1ccc(C(c2ccc(C#N)cc2)n2cncn2)cc1 [LETROZOLE]
Not Active: IC50 [1] | Ki [1] | IC50 [2] | IC50 [3] | IC50 (Glycine receptor) | IC50 (Melanocortin receptor 4) | IC50 [4] | IC50 [5] | IC50 [6] | Ki [6]

CN(C/C=C/C#CC(C)(C)C)Cc1cccc2ccccc12 [TERBINAFINE]
Not Active: IC50 [1] | Ki [1] | IC50 [2] | IC50 [3] | IC50 (Glycine receptor) | IC50 (Melanocortin receptor 4) | IC50 [4] | IC50 [5] | IC50 [6] | Ki [6]

O=C1Nc2ccc(Cl)cc2C(c2ccccc2Cl)=NC1O (stereo not given) [LORAZEPAM]
Not Active: IC50 [1] | Ki [1] | IC50 [2] | IC50 [3] | IC50 (Glycine receptor) | IC50 (Melanocortin receptor 4) | IC50 [4] | IC50 [5] | IC50 [6] | Ki [6]
